Measurements: paper PMC3049581, “Development and evaluation of human AP endonuclease inhibitors in melanoma and glioma cell lines” (British Journal of Cancer, 2011)
“Also recorded” adds a separate entry of the source. Like-named read-outs stand apart in the source and are kept apart here.

Assays:
[1] = system: melanoma and glioma cell lines; test: MTS assay, potentiation of cytotoxic agents (other inhibitors, data not shown); type: cell-based; conditions: relatively non-toxic inhibitor concentration
Protocol: (§1) MeWo, SKMel and MM418 melanoma cancer cell line were grown in RPMI culture medium (supplemented with penicillin 0.06 g l^−1, streptomycin 0.1 g l^−1 pH 7.0, 10% foetal bovine serum (FBS, PAA Cell Culture Company, Yeovil, Somerset, UK). U89 MG and SNB-19 glioma cell lines were grown in DMEM (supplemented with penicillin 0.06 g l^−1, streptomycin 0.1 g l^−1 pH 7.0, 10% foetal bovine serum (FBS, PAA Cell Culture Company). HUVEC endothelial cells were grown in a special media (199 Media+HAMS F12), and supplemented with 20% heat-inactivated foetal calf serum, 1% Hepes, 1% Glutamine, 12.5 μg Human EGF, 625 ng of Human bFGF, 3750 units of Heparin, penicillin 0.06 g l^−1, and streptomycin 0.1 g l^−1) Only cultures with a plating efficiency of over 70% were used for analyses.
(§2) To evaluate intrinsic cytotoxicity and to evaluate the potentiation of toxicity of cytotoxic agents by APE1 inhibitors, MTS assays were performed as per the manufacturer's recommendation (Promega, Southampton, UK). Briefly, 2000 cells per well (in 200 μl of medium) were seeded into a 96-well plate. For HUVEC cells, 5 μl of 2% type 2 gelatine (Sigma) was added to the wells and the plates were preincubated for 20 min at 37°C before seeding of cells. For intrinsic cytotoxicity assessments, cells were incubated with varying concentrations of APE1 inhibitors and the MTS assay was performed on day 5. […] Non-radioactive cell proliferation assay was conducted as described previously.

[2] = system: melanoma and glioma cell lines; test: MTS assay, intrinsic cytotoxicity; type: cell-based; conditions: 120 h, MTS assay on day 5, read-out: GI50 (cell growth inhibition)
Protocol: as §1, §2

[3] = target: T1, AP endonuclease activity of HeLa whole-cell extracts (WCE) (Homo sapiens, UniProt P27695); test: Whole-cell extract AP-site cleavage assay; type: biochemical
T1 construct: incubated at 100 μM concentrations with 30 ng of HeLa WCE at room temperature; endogenous in cells; host or cells: HeLa whole-cell extract
T1 sequence (P27695 whole entry): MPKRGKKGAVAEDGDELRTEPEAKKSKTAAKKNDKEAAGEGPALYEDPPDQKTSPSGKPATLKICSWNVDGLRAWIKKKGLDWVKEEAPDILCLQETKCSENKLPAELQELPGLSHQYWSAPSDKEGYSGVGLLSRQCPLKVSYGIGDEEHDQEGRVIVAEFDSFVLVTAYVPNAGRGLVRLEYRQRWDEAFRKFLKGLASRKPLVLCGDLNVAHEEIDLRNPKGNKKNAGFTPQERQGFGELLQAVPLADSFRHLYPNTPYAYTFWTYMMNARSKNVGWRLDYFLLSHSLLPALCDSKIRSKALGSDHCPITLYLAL
Protocol: The supernatant WCE was retained, the protein concentration determined using the Bio-Rad Bradford reagent, and aliquots were stored at −80°C. AP endonuclease activity assays using 18-mer radiolabelled oligonucleotide substrates (see above) were performed. In brief, all potential APE1 inhibitors were incubated at 100 μM concentrations with 30 ng of HeLa WCE at room temperature for 15 min in incision buffer consisting of 50 mM Tris-HCl, pH 8, 1 mM MgCl2, 50 mM NaCl and 2 mM DTT. After incubation, 0.5 pmol ^32P-radiolabeled THF-containing 18-mer double-stranded DNA substrate was added. […] The radiolabeled substrate and product were separated on a standard polyacrylamide-denaturing gel and quantified by phosphorimager analysis.

Human APE1 = target: T2, Human APE1 (Homo sapiens, UniProt P27695); test: Fluorescence-based AP site cleavage assay; type: biochemical; conditions: APE1 50 nM, wild type
T2 construct: purchased New England Biolabs
T2 sequence (P27695 whole entry): as above
Protocol: (§3) A fluorescence-based AP site cleavage assay was performed as described previously with slight modifications ([Madhusudan et al, 2005]). Briefly, APE1 (50 nM) (New England Biolabs) was incubated in a buffer system consisting of 50 mM Tris-HCl, pH 8.0, 1 mM MgCl2, 50 mM NaCl, 2 mM DTT at 37°C for 10 min. 5′-F-GCCCCCXGGGGACGTACGATATCCCGCTCC-3′ and its complementary Q-labelled oligonucleotide (see above) were annealed in a buffer containing 100 μM Tris-HCl, 50 mM NaCl and 1 μM EDTA. AP-site cleavage was initiated by addition of the annealed substrate (25 nM) to the reaction mix. Fluorescence readings were taken at 5 min intervals during 30 min incubation at 37°C using an Envision Multilabel reader from Perkins Elmer (Cambridge, UK) with a 495 nm excitation and a 512 nm emission filter. If the DNA is cleaved at the abasic site at position 7 from the 5′-end by APE1, the 6-mer fluorescein-containing product will dissociate from its complement by thermal melting. As a result, the quenching effect of the 3′ dabcyl (which absorbs fluorescein fluorescence when in close proximity) is lost, and APE1 activity is measured indirectly as an increase in fluorescence signal (Figure 2A). Similar assays were developed for monitoring the AP endonuclease activity of endonuclease IV using a buffering system containing 10 mM HEPES-KOH, pH 7.4, 100 mM KCl and 60 ng of endonuclease IV (Trevigen, Abingdon, UK). The final DMSO concentration was maintained at 1.2% in all assays.
(§4) APE1 was incubated with the candidate inhibitors at 100 μM (final DMSO concentration, 1.2%) before initiating the AP site cleavage assay described in the previous section. […] In addition, screening of potential inhibitors for their specificity (at 100 μM concentration) was performed using endonuclease IV cleavage assays.
(§5) To estimate IC50 for APE1 inhibition, the ability of the compounds to inhibit APE1 at a range of concentrations (10 nM–100 μM) were evaluated in black 384-well plates. The reactions were set up as before and fluorescence intensity was measured every 5 min for 30 min following reaction initiation. Using the initial rate values from the assay, percent activity was calculated for each sample relative to a negative DMSO only control. The data was fitted to a sigmoidal dose-response model using Graphpad Prism 3.0 (GraphPad Software, La Jolla, CA, USA) and IC50 values were determined using the formula: % Activity=100/(1+10^(log[I]−log IC 50)).

E. coli endonuclease IV = target: T3, E. coli endonuclease IV (Escherichia coli, UniProt P0A6C1); test: Fluorescence-based endonuclease IV cleavage assay (counter-screen); type: biochemical; conditions: tested at 100 μM
T3 construct: purchased Trevigen
Protocol: as §3, §4

[4] = target: T4, D148E polymorphic variant of APE1 (Homo sapiens, UniProt P27695, D148E); test: Fluorescence-based AP site cleavage assay, D148E polymorph; type: biochemical
T4 construct: made in house
T4 sequence (P27695 whole entry D148E): as the sequence (P27695 whole entry) above, with D148E counted along it
Protocol: as §3
as §5, with “The data was fitted to a sigmoidal dose-response model using Graphpad Prism 3.0 (GraphPad Software, La Jolla, CA, USA) and IC50 values were determined using the formula: % Activity=100/(1+10^(log[I]−log IC 50)).” left out

U89MG cells = test: Aldehyde reactive probe assay, genomic AP sites; type: cell-based
Protocol: AP sites were quantified as described previously ([Madhusudan et al, 2005]). Genomic DNA was extracted from a pellet of 1 × 10^6 cells using the guanidine/detergent lysis method. Briefly, 0.5 ml of DNAzol (Helena Biosciences, Gateshead, UK) was added to the pellet and the cell lysate was gently passed several times through a pipette. The resultant viscous solution was centrifuged at 10 000 g for 10 min at 25°C. DNA was precipitated from the supernatant using 0.25 ml of 100% ethanol by gently inverting the tube 5–8 times at room temperature for 1–3 min. The DNA was washed twice in 0.4 ml of 75% ethanol. The DNA was then solubilized in TE buffer (pH 8.0), and the final concentration was adjusted to 100 μg ml^−1 (using a Gene Quant pro spectrophotometer). AP-site determinations were performed on the genomic DNA using an aldehyde reactive probe assay kit using the protocol provided by the manufacturer (BioVision Research Products, Mountainview, CA, USA). Untreated cells were compared with cells exposed to either MMS alone, APE1 inhibitor alone or combination of MMS and APE1 inhibitor. DNA was extracted at 90 min and AP site quantified as described previously. All experiments were performed in triplicate.

glioma cell lines = test: MTS assay, intrinsic cytotoxicity; type: cell-based; conditions: 120 h, MTS day 5, read-out: GI50 (cell growth inhibition)
Protocol: as §1, §2

melanoma cell lines = test: MTS assay, intrinsic cytotoxicity; type: cell-based; conditions: 120 h, MTS day 5, read-out: GI50 (cell growth inhibition)
Protocol: as §1, §2

[5] = target: T4, D148E polymorphic variant of APE1; test: Radiolabelled oligonucleotide-based APE1 cleavage assay, D148E vs wild type; type: biochemical; conditions: data not shown
Protocol: This basic assay was performed as described previously ([Madhusudan et al, 2005]). Briefly, a radiolabelled uracil-containing oligonucleotide (5′-CTCGCAAGUGGGTACCGA-3′) was annealed to a complementary oligonucleotide. […] AP site cleavage reaction consisted of 50 nM APE1 and 0.75 ng reduced AP site double-stranded oligonucleotide incubated at 37°C for 1 h. The sample was resolved on a 15% TBE Criterion Pre Cast Gel (Bio-Rad, Hemel Hempstead, Herts, UK) and the radiolabelled substrate and reaction products were visualised using a phosphorImager (Molecular Dynamics, Buckinghamshire, UK).

HUVEC endothelial cells = test: MTS assay, toxicity in non-cancer cells; type: cell-based; conditions: compared with SK-Mel30 and U89MG
Protocol: as §1
To evaluate intrinsic cytotoxicity and to evaluate the potentiation of toxicity of cytotoxic agents by APE1 inhibitors, MTS assays were performed as per the manufacturer's recommendation (Promega, Southampton, UK). Briefly, 2000 cells per well (in 200 μl of medium) were seeded into a 96-well plate. For HUVEC cells, 5 μl of 2% type 2 gelatine (Sigma) was added to the wells and the plates were preincubated for 20 min at 37°C before seeding of cells. For intrinsic cytotoxicity assessments, cells were incubated with varying concentrations of APE1 inhibitors and the MTS assay was performed on day 5. […]

[6] = system: SK-Mel30 melanoma cell line; test: MTS assay, potentiation of cytotoxic agents; type: cell-based; conditions: inhibitor 10 μM
Protocol: as §1, §2

U89MG glioma cell line = test: MTS assay, potentiation of cytotoxic agents; type: cell-based; conditions: inhibitor 10 μM
Protocol: as §1, §2

[7] = 30 ng HeLa WCE, read-out: WCE Inhibition (whole-cell extracts AP site cleavage inhibition)

Row | Compound | potentiation of cytotoxicity of alkylating agents [1] | GI50 [2] | inhibition at 100 µM [3, 7] | IC50 (Human APE1) | Endo IV inhibition (E. coli endonuclease IV) | also measured
1 | O=C(O)c1cc2cc(F)ccc2[nH]1 [Compound 1, 5-fluoro-1H-indole-2-carboxylic acid] | not | > 300 µM | < 50% | 10 µM | None | 
2 | O=C(COc1ccc2ccccc2c1)Nc1ccc(O)c(-c2nc3ccccc3o2)c1 [Compound 2, N-(3-benzooxazol-2-yl-4-hydroxy-phenyl)-2-(2-naphthyloxy)acetamide] | Potentiation of cytotoxicity was also demonstrated | 50 µM | 50 to 75% | 25 µM | None | 
3 | O=C(OCC(=O)N1NC(c2ccc3ccccc3c2)=CC1c1ccccc1)c1ccc([N+](=O)[O-])s1 (stereo not drawn) [Compound 3, (3-(2-naphthyl)-5-phenyl-2,5-dihydropyrazol-1-yl) carbonylmethyl 5-nitrothiophene-2-carboxylate] | did not shown any potentiation | 1 µM |  | 3 µM |  | inhibition of AP site cleavage in WCE assay ([3]; 100 μM, HeLa WCE): no activity; also recorded: did not inhibit; inhibition of AP site cleavage in WCE assay ([3]; 100 μM, HeLa WCE, listed as compound 3, 100 µM): no effect
4 | Cc1ccc(-c2nc(S(=O)(=O)c3ccccc3)c(SCC(=O)Nc3ccc(F)cc3)o2)cc1 [Compound 4, N-(4-fluorophenyl)-2-(4-phenylsulfonyl-2-(p-tolyl)oxazol-5-yl) sulfanyl-acetamide] |  |  | > 75% | 11 µM | no inhibition and None | IC50 ([4]; D148E polymorph, 50 nM protein, read-out: IC50 for APE1 inhibition, D148E protein): 5.56 µM; reduction of IC50 for D148E protein compared with wild type ([4]; D148E vs wild type): 50.5%; preferential inhibitory activity towards D148E compared with wild type ([4]; fluorescence or radiolabelled assays): D148E was more sensitive to inhibition; AP site content in genomic DNA, combination with MMS (U89MG cells; 10 μM inhibitor + MMS 600 μM, 90 min): increased AP site content; AP site accumulation in genomic DNA, inhibitor alone (U89MG cells; 10 μM, DNA extracted at 90 min, vs untreated cells): accumulated AP sites; GI50 (glioma cell lines): 17 µM; GI50 (melanoma cell lines): 20 µM; inhibition of AP site cleavage in WCE assay ([3]; 100 μM, HeLa WCE): > 90%; inhibition at 100 µM ([3]; HeLa WCE, read-out: inhibition of AP site cleavage in WCE assay): ~93%; preferential inhibitory activity towards D148E protein, radiolabelled assay [5]: confirmed; toxicity to HUVEC cells (HUVEC endothelial cells): relatively nontoxic; potentiation of cytotoxicity of MMS [6]: Potentiation; potentiation of cytotoxicity of doxorubicin [6]: did not potentiate; potentiation of cytotoxicity of temozolomide [6]: Potentiation; potentiation of cytotoxicity of MMS (U89MG glioma cell line): Potentiation; also recorded: significantly potentiated; potentiation of cytotoxicity of doxorubicin (U89MG glioma cell line): did not potentiate; potentiation of cytotoxicity of temozolomide (U89MG glioma cell line): Potentiation; also recorded: significantly potentiated
5 | O=C(CCCn1c(SCC(=O)Nc2nccs2)nc2ccsc2c1=O)NCc1ccc2c(c1)OCO2 [Compound 5, N-(benzo(1,3)dioxol-5-ylmethyl)-4-(2-oxo-4-(thiazol-2-ylcarbamoylmethylsulfanyl)-9-thia-3,5-diazabicyclo(4.3.0)nona-4,7,10-trien-3-yl)-butanamide] | Potentiation of cytotoxicity was also demonstrated | 14 µM | 50 to 75% | 12 µM | None | 
6 | O=C(CSc1nc2ccccc2s1)CSc1nc2ccccc2s1 [Compound 6, 1,3-bis(1,3-benzothiazol-2-ylthio)acetone] | Potentiation of cytotoxicity was also demonstrated | 50 µM |  | 3 µM | None | WCE Inhibition (whole-cell extracts AP site cleavage inhibition) ([3]; 100 μM, 30 ng HeLa WCE): Strong
7 | N#CC(C(=O)c1cc2ccccc2o1)c1nc2ccccc2s1 (stereo not drawn) [Compound 7, 3-benzofuran-2-yl-2-benzothiazol-2-yl-3-oxo-propanenitrile] | did not show any potentiation | 40 µM | 50 to 75% | 2 µM | complete inhibition and yes | Endo IV inhibition (E. coli endonuclease IV; listed as compound 7): blocked endonuclease IV activity
